# Source: patent US20260159525A1, “TRICYCLIC HETEROCYCLES” (Merck Patent GmbH, priority 2021, published 2026)
# Test system: YAP-TEAD interaction
# Assay: SK-HEP-1 reporter assay (8x TEAD responsive elements driving NanoLuc luciferase)
# Type: cell-based
# Conditions: Homo sapiens, SK-HEP1, SK-HEP-1 cells, 24 hour incubation, group symbols
# Method: To identify inhibitors of YAP-TEAD interaction, 8× TEAD responsive elements driving the NanoLuc® luciferase gene were stably integrated into SK-HEP-1 cells (ECACC #: 91091816).
# For the assay, cells were treated in duplicates with the test compounds in a 10-point dose, with the top concentration starting at 30 μM (final concentration in assay). After a 24 hour incubation at 37° C., 95% rH, and 5% CO2, a luciferase substrate/lysis reagent mix (NanoGlo™, Promega) was added to the cells, allowing the quantification of cellular luciferase activity.
# Cell Media: The cells were cultured in the following media: MEM, +10% FBS, +1× GlutaMAX, +1 mM Sodium-Pyruvate, +100 μM Non-essential amino acids, +0.1 mg/ml Hygromycin. The media used for the assay was: MEM (w/o Phenol Red), +10% FBS, +1× GlutaMAX, +1 mM Sodium-Pyruvate, +100 μM Non-essential amino acids, +0.5% Pen/Strep
# Reagents: The reagents used are listed below:
# Cell culture: The cells were examined using an inverted microscope to check for health and cell density. To dissociate adherent cells, the monolayer of cells was washed once with pre-warmed PBS. After removing the PBS, 3 ml pre-warmed Accutase® was added to a F75 flask, dispersed evenly and the flask was allowed to sit in incubator for ˜4-5 minutes.
# When a single cell suspension was obtained, 7 ml of prewarmed growth media was added and resuspended with the cells. The cell suspension was transferred to a sterile 15 ml conical centrifuge tube, and spun for 5 min at 300×g, RT. The supernatant was discarded and the pellet was resuspended in 10 ml of pre-warmed growth media.
# The total cell count was determined, and 20 μl of the desired cell number was added to each well of a 384 well plate using a Multidrop Combi. The plates were then incubated for 24 hours at 37° C., 95% rH, and 5% CO2.
# Compound treatment: 24 hours after seeding, the cells were treated with compounds.
# A 1:333 dilution of compounds, diluted in DMSO, was made to get a final concentration of 0.3% DMSO per well. To transfer the compounds to the assay plate, 120 nl was shot from Labcyte low dead volume plates to the cell plates containing 20 μl media/well with the ECHO 555 liquid handling system. After treatment, the cells were fed with 20 μl fresh pre-warmed assay media using a Multidrop combi.
# The assay plates were then incubated for another 24 h at 37° C., 95% rH, and 5% CO2.
# Luciferase readout: 24 h after treatment, the plates were taken out of the incubator and were allowed to equilibrate to RT. 30 μl of NanoGlo® reagent was added to the plates in the dark. Plates were shaken for 20 min on a Teleshake (˜1500 rpm) in the dark. The luminescence was then measured using an EnVision microplate reader. The IC50 values were generated using Genedata Screener®.
row,IC50 [µM],SMILES
1,0.1 to 10,"Cn1nc2c3sc(C(=O)NC4CC4)cc3n(-c3ccc(C(F)(F)F)cc3)c2n1 [Compound 6, N-cyclopropyl-4-methyl-7-[4-(trifluoromethyl)phenyl]-11-thia-3,4,5,7-tetraazatricyclo[6.3.0.0^2,6]undeca-1(8),2,5,9-tetraene-10-carboxamide]"
2,> 10,"Cn1nc2c3sc(C(=O)NCCO)cc3n(-c3ccc(C(F)(F)F)cc3)c2n1 [Compound 7, N-(2-hydroxyethyl)-4-methyl-7-[4-(trifluoromethyl)phenyl]-11-thia-3,4,5,7-tetraazatricyclo[6.3.0.0^2,6]undeca-1(8),2,5,9-tetraene-10-carboxamide]"
3,0.1 to 10,"Cn1nc2c3sc(C(=O)N4CCC(O)C4)cc3n(-c3ccc(C(F)(F)F)cc3)c2n1 (stereo not drawn) [Compound 9, 1-{4-methyl-7-[4-(trifluoromethyl)phenyl]-11-thia-3,4,5,7-tetraazatricyclo[6.3.0.0^2,6]undeca-1(8),2,5,9-tetraene-10-carbonyl}pyrrolidin-3-ol]"
4,> 10,"Cn1cc2c3sc(C(=O)NCCO)cc3n(-c3ccc(C(F)(F)F)cc3)c2n1 [Compound 13, N-(2-hydroxyethyl)-10-methyl-7-[4-(trifluoromethyl)phenyl]-3-thia-7,9,10-triazatricyclo[6.3.0.0^2,6]undeca-1(11),2(6),4,8-tetraene-4-carboxamide]"
5,> 10,"C[C@H](CO)NC(=O)c1cc2c(s1)c1cn(C)nc1n2-c1ccc(C(F)(F)F)cc1 [Compound 16, N-[(2R)-1-hydroxypropan-2-yl]-10-methyl-7-[4-(trifluoromethyl)phenyl]-3-thia-7,9,10-triazatricyclo[6.3.0.0^2,6]undeca-1(11),2(6),4,8-tetraene-4-carboxamide]"
6,> 10,"CNC(=O)c1cc2c(s1)c1nc(C)sc1n2-c1ccc(C(F)(F)F)cc1 [Compound 23, N,4-dimethyl-7-[4-(trifluoromethyl)phenyl]-5,11-dithia-3,7-diazatricyclo[6.3.0.0^2,6]undeca-1(8),2(6),3,9-tetraene-10-carboxamide]"
7,> 10,"Cn1nc2c3sc(C(N)=O)cc3n(-c3ccc(C(F)(F)F)cc3)c2n1 [Compound 28, 4-methyl-7-[4-(trifluoromethyl)phenyl]-11-thia-3,4,5,7-tetraazatricyclo[6.3.0.0^2,6]undeca-1(8),2,5,9-tetraene-10-carboxamide]"
8,> 10,"CNC(=O)c1cc2c(s1)c1nn(C)nc1n2-c1ccc(OC(F)(F)F)cc1 [Compound 29, N,4-dimethyl-7-[4-(trifluoromethoxy)phenyl]-11-thia-3,4,5,7-tetraazatricyclo[6.3.0.0^2,6]undeca-1(8),2,5,9-tetraene-10-carboxamide]"
9,0.1 to 10,"Cn1nc2c3sc(C(=O)NC4CC4)cc3n(-c3ccc(OC(F)(F)F)cc3)c2n1 [Compound 30, N-cyclopropyl-4-methyl-7-[4-(trifluoromethoxy)phenyl]-11-thia-3,4,5,7-tetraazatricyclo[6.3.0.0^2,6]deca-1(8),2,5,9-tetraene-10-carboxamide]"
10,0.1 to 10,"Cn1nc2c3sc(C(N)=O)cc3n(-c3ccc(OC(F)(F)F)cc3)c2n1 [Compound 38, 4-methyl-7-[4-(trifluoromethoxy)phenyl]-11-thia-3,4,5,7-tetraazatricyclo[6.3.0.0^2,6]undeca-1(8),2,5,9-tetraene-10-carboxamide]"

# More lines, now with the values behind:
row,SMILES,IC50 [µM]
1,"COCC[C@H](CO)NC(=O)c1cc2c3cn(C)nc3n(-c3ccc(C(F)(F)F)cc3)c2s1 (single isomer, unassigned) [Compound 58]",> 10
2,"Cn1cc2c3sc(C(=O)N[C@@H](CO)c4ccccn4)cc3n(-c3ccc(C(F)(F)F)cc3)c2n1 [Compound 14, N-[(1R)-2-hydroxy-1-(pyridin-2-yl)ethyl]-10-methyl-7-[4-(trifluoromethyl)phenyl]-3-thia-7,9,10-triazatricyclo[6.3.0.0^2,6]undeca-1(11),2(6),4,8-tetraene-4-carboxamide]",> 10
3,"Cn1cc2c3sc(C(=O)O)cc3n(CCC(C)(C)C(F)(F)F)c2n1 [Compound 24, 10-methyl-7-(4,4,4-trifluoro-3,3-dimethylbutyl)-3-thia-7,9,10-triazatricyclo[6.3.0.0^2,6]undeca-1(11),2(6),4,8-tetraene-4-carboxylic acid]",0.1 to 10
4,"CNC(=O)c1cc2c(s1)c1nc(C)sc1n2-c1ccc(OC(F)(F)F)cc1 [Compound 26, N,4-dimethyl-7-[4-(trifluoromethoxy)phenyl]-5,11-dithia-3,7-diazatricyclo[6.3.0.0^2,6]undeca-1(8),2(6),3,9-tetraene-10-carboxamide]",0.1 to 10
5,"CNC(=O)c1cc2c(s1)c1cn(C)nc1n2C[C@H]1C[C@@H](C(F)(F)F)C1 [Compound 39, N,10-dimethyl-7-{[(1s,3s)-3-(trifluoromethyl)cyclobutyl]methyl}-3-thia-7,9,10-triazatricyclo[6.3.0.0^2,6]undeca-1(11),2(6),4,8-tetraene-4-carboxamide]",0.1 to 10
6,"Cn1cc2c3cc(C(=O)O)sc3n(-c3ccc(C(F)(F)F)cn3)c2n1 [Compound 53, 4-methyl-7-[5-(trifluoromethyl)pyridin-2-yl]-9-thia-4,5,7-triazatricyclo[6.3.0.0^2,6]undeca-1(8),2,5,10-tetraene-10-carboxylic acid]",0.001 to 0.01
7,"Cn1cc2c3cc(C(=O)O)sc3n(-c3ccc(OC(F)(F)F)cc3)c2n1 [Compound 54, 4-methyl-7-[4-(trifluoromethoxy)phenyl]-9-thia-4,5,7-triazatricyclo[6.3.0.0^2,6]undeca-1(8),2,5,10-tetraene-10-carboxylic acid]",0.001 to 0.01
8,"Cn1cc2c3cc(C(=O)NCC4CNC4)sc3n(-c3ccc(C(F)(F)F)cc3)c2n1 [Compound 60, N-[(azetidin-3-yl)methyl]-4-methyl-7-[4-(trifluoromethyl)phenyl]-9-thia-4,5,7-triazatricyclo[6.3.0.0^2,6]undeca-1(8),2,5,10-tetraene-10-carboxamide]",0.1 to 10
9,"Cn1cc2c3cc(C(=O)O)sc3n(-c3ccc(C(F)(F)F)nc3)c2n1 [Compound 81, 4-methyl-7-[6-(trifluoromethyl)pyridin-3-yl]-9-thia-4,5,7-triazatricyclo[6.3.0.0^2,6]undeca-1(8),2,5,10-tetraene-10-carboxylic acid]",0.01 to 0.1
10,"CC[C@@H](O)CNC(=O)c1cc2c3cn(C)nc3n(-c3ccc(C(F)(F)F)cc3)c2s1 [Compound 82, N-[(2R)-2-hydroxybutyl]-4-methyl-7-[4-(trifluoromethyl)phenyl]-9-thia-4,5,7-triazatricyclo[6.3.0.0^2,6]undeca-1(8),2,5,10-tetraene-10-carboxamide]",0.1 to 10

# Same assay, conditions: Homo sapiens, SK-HEP1, SK-HEP-1 cells, 24 hour incubation, number, or n.d. (x) = not detectable below threshold x
row,IC50 [µM],SMILES
1,> 9.5,"Cn1cc2c3cc(C(=O)NC(CO)C4CCC4)sc3n(-c3ccc(C(F)(F)F)cc3)c2n1 (racemic) [Compound 57, N-(1-cyclobutyl-2-hydroxyethyl)-4-methyl-7-[4-(trifluoromethyl)phenyl]-9-thia-4,5,7-triazatricyclo[6.3.0.0^2,6]undeca-1(8),2,5,10-tetraene-10-carboxamide]"
2,> 9.5,"Cn1cc2c3cc(C(=O)N[C@@H](CO)C4CCC4)sc3n(-c3ccc(C(F)(F)F)cc3)c2n1 (single isomer, unassigned) [Compound 55]"
3,> 9.5,"Cn1cc2c3cc(C(=O)N[C@H](CO)C4CCC4)sc3n(-c3ccc(C(F)(F)F)cc3)c2n1 (single isomer, unassigned) [Compound 56]"
4,> 30,"Cn1cc2c3cc(C(=O)NC[C@@H](O)CO)sc3n(-c3ccc(C(F)(F)F)cc3)c2n1 (single isomer, unassigned) [Compound 128]"
5,> 0.95,"Cn1cc2c3cc(C(=O)NC[C@H](O)CO)sc3n(-c3ccc(C(F)(F)F)cc3)c2n1 (single isomer, unassigned) [Compound 129]"
6,> 0.095,"Cn1ccc([C@H](CO)NC(=O)c2cc3c4cn(C)nc4n(-c4ccc(C(F)(F)F)cc4)c3s2)n1 (single isomer, unassigned) [Compound 131]"
7,> 3,"CC(=O)NCCOCCOCCNC(=O)c1cc2c3cn(C)nc3n(-c3ccc(C(F)(F)F)cc3)c2s1 [Compound 73, N-(2-{2-[2-({4-methyl-7-[4-(trifluoromethyl)phenyl]-9-thia-4,5,7-triazatricyclo[6.3.0.0^2,6]undeca-1(8),2,5,10-tetraen-10-yl}formamido)ethoxy]ethoxy}ethyl)acetamide]"
